Measured values taken from a melting point compilation (Tetko et al.; mined from patent text by program, amines drawn as free bases though some values may be those of a salt).

Row | melting point [°C] | Structure (SMILES)
1 | 145 | CCc1nc(C(C)(C)O)c(C(=O)OCc2oc(=O)oc2C)n1Cc1ccc(-c2ccccc2-c2nnnn2C(c2ccccc2)(c2ccccc2)c2ccccc2)cc1
2 | 249 | N#Cc1ccc(C=CC(=O)c2ccc(O)c(CC(=O)O)c2)cc1
3 | 201 to 203 | CCCOc1ccc(C(=O)OC)cc1-c1ccc(C#N)c(=O)[nH]1
4 | 100 to 102 | CC(C)(C)c1cc(-c2nc(C(Cl)(Cl)Cl)no2)cc(C(C)(C)C)c1O
5 | 107 to 108 | COC(=O)c1ccc(S(C)(=O)=O)c(C)c1Cl
6 | > 250 | N[C@@]1(C(=O)O)C[C@H](NC(=O)Nc2ccccc2Cl)[C@H]2[C@H](C(=O)O)[C@H]21 (relative stereo)
7 | 106 to 109 | Cc1cc(Nc2ccc(S(F)(F)(F)(F)F)cc2)c(S(C)(=O)=O)cc1C(=O)O
8 | 81 to 86 | FCc1cc(Cl)n2nc(SCc3ccccc3)nc2n1
9 | 131 to 133 | COc1ccc(NC(=O)[C@H]2[C@H](c3ccccc3)C23CCCC3)c(OC)n1 (relative stereo)
10 | 194 to 198 | O=C(O)C1CCc2c(oc3ccc(Cl)cc23)C1 (stereo not given)
11 | 76 to 78 | Oc1ccc(C2OCCO2)cc1Br
12 | 89 to 90 | COc1ccc(CN(C(=O)C2CCCc3ccc(OC)cc32)c2ccc(OC)cc2)cc1 (stereo not given)
13 | 143 to 146 | CC(=O)Oc1cccc2c1N=CC1CCCN1C2=O (stereo not given)
14 | 139 to 141 | CCCCc1c(-c2ncccc2C(=O)O)n(-c2ccccc2)n(-c2ccccc2)c1=O
15 | 218 to 220 | COc1ccc(-c2nn3c(SC)nnc3c3ccccc23)cc1
16 | 170 to 172 | CN1CCN(c2ccc(S(=O)(=O)Oc3ccc(F)cc3)cc2)C1=O
17 | 142 | CCOC(=O)N1CC[C@H](NC(=O)c2cc(N)c(Cl)cc2OC)[C@H](OC)C1 (relative stereo)
18 | 179 | CCn1c(N)c(C(N)=O)c(=O)c2cnc(Nc3ccc(N4CCN(C(C)=O)CC4)cc3)nc21
19 | 292 | CC1NC(=O)NN=C1c1ccc2c(c1)C(C)(C)C(=O)N2 (stereo not given)
20 | 193 to 195 | O=C(O)c1cccc(CC2COc3ccc(OCc4ccc5ccccc5n4)cc3C2O)c1 (stereo not given)
21 | 169 to 172 | Cc1c(C(=O)c2cccc(O)c2)sc(N)c1C(=O)OC(C)(C)C
22 | 162 to 163 | O=C(O)c1ccc(NCCCc2ccccc2)cc1
23 | 117 to 120 | CCOC(=O)c1cnc2snc(C)c2c1NCS(=O)(=O)c1ccc(Oc2ccc(Cl)cc2)cc1
24 | 58 to 60 | CCC(C)NC(=O)c1ncc(C)cc1C(=O)OC (stereo not given)

Row | melting point [°C] | Structure (SMILES)
25 | 147 to 150 | COc1ccc(C(CC(=O)O)CC(=O)O)cc1
26 | 78 | CCCCSc1nc(O)ns1
27 | 105 to 108 | CC(C)Cc1ccc2c([N+](=O)[O-])c(O)c(O)cc2c1
28 | 136 to 137 | CCOc1cc(C)ccc1S(N)(=O)=O
29 | 123 to 125 | O=S(=O)(Nc1ccccc1OCc1csc(-c2ccccc2)n1)C(F)(F)F
30 | 150 to 151 | COC(=O)OC(C)OC1=C(C(=O)Nc2ccccn2)N(C)S(=O)(=O)c2ccccc21 (stereo not given)
31 | 190 to 193 | CCOCc1nc2c(N)nc(C)c(C)c2n1CC(C)(C)O
32 | 101 | O=C1CC(NC(=O)C2CCCN3C(=O)CCC(NC(=O)c4ccccc4)C(=O)N23)C(OCCc2ccccc2)O1 (stereo not given)
33 | 114 to 115 | CCOC(=O)c1cnc(Cl)nc1NCc1ccc(OC)c(Cl)c1
34 | 109 to 110 | COC(=O)C(=O)c1ccc(OCc2ccc3ccccc3n2)cc1
35 | 176 to 181 | O=C(O)c1cccc(-c2ccc3c(c2)C(Oc2ccc(Cl)cc2Cl)CCC3)c1 (stereo not given)
36 | 67 to 70 | CC(C)(C)c1cc(CNC2CCCCC2)c(O)c(C(C)(C)C)c1
37 | 163 | Cc1nnc(-c2ccccc2)n1-c1ccccc1
38 | 255 to 257 | CCOC(=O)Cc1c[nH]c2nc(Nc3ccccc3)nn2c1=O
39 | 143 | O=C(CN1C(=O)c2ccccc2C1=O)Nc1ccccc1Oc1ccccc1
40 | 277 to 279 | O=c1cc(-c2ccc(O)cc2[N+](=O)[O-])oc2ccccc12
41 | 127 to 130 | COc1ccc(NCC(=O)N2CCC(Oc3ccc(Cl)cc3)CC2)cc1
42 | 60 to 61 | CC(O)c1nccc2c1CCCC2 (stereo not given)
43 | 119 to 121 | CCN1CC(NC(=O)c2ccc(N)cc2)CN1CC
44 | 184 to 186 | CCc1nc2c(N)nc3cc(OCc4ccc(C(=O)OC)o4)ccc3c2s1
45 | 121 | NC(=S)N1CCCCc2cccnc21
46 | 110 | O=C1c2ccc(OCCOCCOCCO)cc2C(=O)c2ccc(OCCOCCOCCO)cc21
47 | 142 to 144 | COC1=CC(Cl)(OC)NC(C(=O)CC(=O)Nc2ccccc2)=N1 (stereo not given)
48 | 270 | COc1ccc(CN2C(=O)[C@H](NC(=O)OC(C)(C)C)[C@@H]2/C=C/C(N)=O)c(OC)c1

Row | melting point [°C] | Structure (SMILES)
49 | 190 to 193 | NS(=O)(=O)c1ccc(-c2cnn(C=C(F)C(F)F)c(=O)c2-c2ccc(F)cc2)cc1
50 | 212 to 215 | COc1cc(C(=O)NS(=O)(=O)c2ccccc2C)ccc1Cc1cn(C)c2ccc(NC(=O)NC3CCCC3)cc12
51 | 114 to 115 | N#CCCN(N)c1nc2cccc(Cl)c2o1
52 | 200 to 203 | O=C1CN(C(=O)CN2CC(c3ccc(F)cc3)CC2=O)CCN1 (stereo not given)
53 | 158 to 161 | Cn1cccc1CCN1C(=O)NCc2c(-c3ccccc3)cccc21
54 | 78 to 80 | CC(C)C(=O)n1cc(C(=O)C2CSC(c3cccnc3)N2)c2ccccc21 (stereo not given)
55 | 166 to 168 | CCOC(=O)c1nc2ccccn2c1S(N)(=O)=O
56 | 222 to 223 | Cc1noc(C)c1-c1cncc(OC2SCC(O)C(O)C2O)c1 (stereo not given)
57 | 174 | CCN(CC)C(C)(C)CNC1(c2ccccc2Cl)C(=O)Nc2ccc(Cl)cc21 (stereo not given)
58 | 114 to 115 | Cc1ccc(S(=O)(=O)OC[C@H]2CN(c3cccc(F)c3)C(=O)O2)cc1
59 | 161 to 162 | CCn1cc(C(=O)NCCCN(C)C)c(=O)c2ccc(I)cc21
60 | 222 to 225 | O=C(Nc1cccc(Cl)c1)NC1CC(C2CCCCC2)c2ccccc2NC1=O (stereo not given)
61 | 198 to 200 | O=C(CS)N[C@@H](Cc1c[nH]cn1)C(=O)O
62 | 63 | CCCNc1c(C#N)cnn1-c1ccc(OC(F)(F)F)cc1Cl
63 | 279 to 280 | CN(c1ccc(Cl)cc1)c1nc(=O)c2ccc(-c3ccccc3)nc2s1
64 | 63 to 64 | CC1=C(C)CCCCCC1
65 | > 250 | COc1cc2c(cc1C#Cc1ccccc1)NC(=O)CC(c1cccc(C#N)c1)=N2
66 | 71 to 72 | OCc1cncc(-c2ccccc2)c1
67 | 107 to 108 | COC(=O)c1cc([N+](=O)[O-])ccc1Nc1ccc(CCc2ccc(Cl)c(Cl)c2)cc1
68 | 151 to 152 | CCc1cc2c(=O)n3cc(C(=O)OC)ccc3nc2s1
69 | 65 to 68 | CCCCCC(C(=O)O)c1ccc(Cl)cc1Cl (stereo not given)
70 | 99 to 102 | CCCCCCCCCCCCCCCCCCCCCCOc1ccc(C(=O)O)cc1
71 | 114 to 118 | CCN(CC)C(=O)Nc1ccc(S(=O)(=O)N2C(=O)C(NCCOCCO)(c3ccccc3Cl)c3cc(Cl)ccc32)cc1 (stereo not given)
72 | 130 to 131 | Cc1cccc(Cn2ncc3c(N4CCN(C(=O)OC(C)(C)C)CC4)ncnc32)c1

Row | melting point [°C] | Structure (SMILES)
73 | 187 | CNc1ccc(C(=O)Nc2ccccc2[N+](=O)[O-])cc1
74 | 242 to 244 | COc1ccc(C=C2NC(=O)NC2=O)cc1
75 | 190 to 192 | O=C1CCC(c2ccc(-c3ccc(Cl)cc3)cc2)=NO1
76 | 174 to 180 | O=C(Cl)c1cc(C#Cc2ccccc2)c(C(=O)Cl)cc1C#Cc1ccccc1
77 | 168 to 169 | Cn1cc(-c2c(-c3ccccc3)nn3ccncc23)ccc1=O
78 | 137 to 140 | COc1ccc(C(=O)Nc2ccccc2)cc1NCc1cccc(F)c1
79 | 85 | CCCCCCCCCCCCCCCCC1CC(=O)N(NC(=O)CCc2cc(C(C)(C)C)c(O)c(C(C)(C)C)c2)C1=O (stereo not given)
80 | 150 to 151 | COc1ccc(-c2cccc(C=CC(=O)Nc3ccc(CN4CCCCC4)cc3)c2)cc1
81 | 132 to 133 | CC(=O)Nc1ccc(OC2SCC(OC(C)=O)C(OC(C)=O)C2OC(C)=O)cn1 (stereo not given)
82 | 184 to 186 | CS(=O)(=O)Nc1cc(C(=O)c2ccccc2)ccc1N
83 | > 220 | Cc1cc(-c2cccc(N)n2)c(C)cc1OCCN1CCN(CCc2ccccc2)CC1
84 | 212 to 213 | CC(=O)N1CCC2(CC1)Nc1cc(C)ccc1-n1cccc12
85 | 122 | COCCOc1ccc(/C=C(\C)C(=O)O)c(Oc2ncc(C(F)(F)F)cc2Cl)c1
86 | 156 to 157 | O=C1c2ccc(Cl)cc2C(=O)N1c1ccc(Cl)cc1OC(F)(F)F
87 | 228 to 230 | Nc1cc(Cl)c(Br)cc1C(=O)O
88 | 107 | CCOC(=O)Nc1ccc(C(c2ccccc2)n2ccnc2)cc1C=O (stereo not given)
89 | 65 to 72 | COC(=O)c1c(F)cc(OCCNC(=O)C2Cc3ccccc3N2S(=O)(=O)c2ccc(-c3ccc(F)cc3C)cc2)cc1F (stereo not given)
90 | 239 to 241 | c1ccc(-c2ncc(-c3ccc4cc(OCc5nnn[nH]5)ccc4c3)o2)cc1
91 | 177 to 178 | C=C1C(=C)C2OC1C1=C2Cc2c(OC)ccc(OC)c2C1
92 | 173 to 174 | NCCNc1nc2ccccc2n(-c2ccc(Cl)cc2)c1=O
93 | 164 to 165 | COC(=O)C1(n2c(=O)[nH]c3ccccc3c2=O)CCCC1
94 | 181 to 183 | COc1ccc(C2Nc3ccccc3-c3c([N+](=O)[O-])cnn32)cc1 (stereo not given)

Row | Structure (SMILES) | melting point [°C]
95 | COc1ccc(CCl)cc1OC | 50 to 51
96 | NS(=O)(=O)c1cc(C(=O)OCC(=O)N[C@@H](CCO[N+](=O)[O-])CO[N+](=O)[O-])c(NCc2ccco2)cc1Cl | 93 to 95
97 | CC1(C)OC(=O)N2CCNCC21 (stereo not given) | 92 to 93
98 | O=C(O)C(F)(F)C(F)(F)C(F)(F)C(F)(F)C(F)(F)C(F)(F)C(=O)O | 142 to 144
99 | CCC1C(C)=NN=C(c2ccccc2)c2ccc(OC)cc21 (stereo not given) | 162 to 163
100 | C=CCN1C2CCC3C1CCC2N3C(c1ccc(C(=O)N2CCCCC2)cc1)c1cccc(OC)c1 (stereo not given) | 94 to 96
